In article PMC10046369, “Low-Affinity/High-Selectivity Dopamine Transport Inhibition Sufficient to Rescue Cognitive Functions in the Aging Rat” (Biomolecules, 2023):

Assays:
Assay in all cases: cell-based
Set-up in all cases: Eurofins Cerep functional GPCR screen, antagonist mode, inhibition of control agonist response
Details in all cases: read-out: % Inhibition of Control Agonist Response, Mean
OXGR1 GPR99 = OXGR1 GPR99 (Homo sapiens, UniProt Q96P68)
CysLT2 (LTC4) = target: T1, CysLT2 (LTC4) (Homo sapiens, UniProt Q9NS75)
T1 construct: gene CYSLTR2

α1A = target: T2, α1A (Homo sapiens, UniProt P35348)
T2 construct: gene ADRA1A

GAL1 = target: T3, GAL1 (Homo sapiens, UniProt P47211)
T3 construct: gene GALR1
T3 sequence (P47211 whole entry): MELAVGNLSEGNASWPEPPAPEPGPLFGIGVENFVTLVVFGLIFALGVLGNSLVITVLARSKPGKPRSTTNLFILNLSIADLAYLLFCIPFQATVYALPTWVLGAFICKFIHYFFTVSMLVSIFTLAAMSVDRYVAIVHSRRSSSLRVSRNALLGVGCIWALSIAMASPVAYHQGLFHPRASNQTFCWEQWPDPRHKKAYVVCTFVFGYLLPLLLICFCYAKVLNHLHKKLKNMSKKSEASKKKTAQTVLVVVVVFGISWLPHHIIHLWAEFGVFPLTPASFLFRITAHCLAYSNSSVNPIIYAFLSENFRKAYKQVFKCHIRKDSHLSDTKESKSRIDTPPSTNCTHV

T2 sequence (P35348 whole entry): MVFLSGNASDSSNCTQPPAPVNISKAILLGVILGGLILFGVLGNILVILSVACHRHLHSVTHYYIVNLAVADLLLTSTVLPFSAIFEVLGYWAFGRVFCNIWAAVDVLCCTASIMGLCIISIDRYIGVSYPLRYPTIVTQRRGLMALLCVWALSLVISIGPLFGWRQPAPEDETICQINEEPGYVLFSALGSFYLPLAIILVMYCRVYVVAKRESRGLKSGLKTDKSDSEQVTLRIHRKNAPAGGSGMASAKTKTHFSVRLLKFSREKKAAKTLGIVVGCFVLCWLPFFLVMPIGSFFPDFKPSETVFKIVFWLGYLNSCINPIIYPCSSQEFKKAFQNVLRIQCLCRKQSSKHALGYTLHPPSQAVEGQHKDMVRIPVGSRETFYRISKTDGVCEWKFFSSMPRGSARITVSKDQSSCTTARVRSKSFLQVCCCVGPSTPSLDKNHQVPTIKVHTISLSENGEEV
T1 sequence (Q9NS75 whole entry): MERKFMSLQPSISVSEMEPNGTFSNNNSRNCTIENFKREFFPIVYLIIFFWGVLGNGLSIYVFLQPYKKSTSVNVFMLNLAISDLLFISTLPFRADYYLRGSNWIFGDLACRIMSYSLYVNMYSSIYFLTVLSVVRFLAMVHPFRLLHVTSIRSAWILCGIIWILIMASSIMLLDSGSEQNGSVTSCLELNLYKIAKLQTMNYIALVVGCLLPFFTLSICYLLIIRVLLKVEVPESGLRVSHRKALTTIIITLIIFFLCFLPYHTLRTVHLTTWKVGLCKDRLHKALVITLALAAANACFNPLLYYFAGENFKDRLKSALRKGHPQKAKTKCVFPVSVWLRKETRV
Sequence of OXGR1 GPR99 (Q96P68 whole entry): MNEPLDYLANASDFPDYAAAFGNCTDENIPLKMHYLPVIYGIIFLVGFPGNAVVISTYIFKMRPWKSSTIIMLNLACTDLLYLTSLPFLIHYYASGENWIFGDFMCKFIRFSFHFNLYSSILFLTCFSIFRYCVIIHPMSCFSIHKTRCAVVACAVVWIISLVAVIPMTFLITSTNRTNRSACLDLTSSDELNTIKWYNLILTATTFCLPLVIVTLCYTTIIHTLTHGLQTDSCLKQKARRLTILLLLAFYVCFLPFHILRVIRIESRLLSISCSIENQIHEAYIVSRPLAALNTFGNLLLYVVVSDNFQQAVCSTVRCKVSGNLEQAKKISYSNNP

[O-][S@@+](Cc1cncs1)C(c1ccccc1)c1ccccc1 [S-CE-123, (S)-5-((Benzhydrylsulfinyl)Methyl)Thiazole]
inhibition at 2.8 µM (OXGR1 GPR99): -10.2%
inhibition at 2.8 µM (CysLT2 (LTC4)): 4.5%
inhibition at 2.8 µM (α1A): 3.1%
inhibition at 2.8 µM (GAL1): 2.3%
